# Values joined by “and” are separate entries in the source; they are usually repeats but may differ in a detail not shown here. Equal entries are not always repeated.
# Assay: Safety: treatment-emergent adverse events (NCI CTCAE v5.0; CRS per ASTCT), phase I/II study NCT03648372
# Assay type: in vivo
# Experimental: This study comprised two parts: a phase I dose escalation and a phase II dose expansion (Fig. 1). In the dose-escalation phase, patients were enrolled to receive subasumstat intravenously as a 1-hour (±10 minutes) infusion on days 1, 4, 8, and 11 of a 21-day cycle (biweekly schedule). […] Dose escalation was based on cohort with an adaptive design using Bayesian logistic regression modeling with overdose control. The starting dose of subasumstat was based on Good Laboratory Practice animal toxicity studies and supported by the estimation of a minimum anticipated biologically effective level. A detailed description of dose-limiting toxicities (DLT) is presented in the Supplementary Methods.
# The phase II dose-expansion portion enrolled patients to receive the recommended phase II dose (RP2D) determined in phase I, with each cohort assessed separately using an adaptive two-stage design for a single proportion (see Supplementary Methods). For stage 1, each cohort was analyzed when a prespecified number of patients were enrolled and had the potential to have at least one posttreatment scan [i.e., after the first disease assessment, 2 months from cycle 1 day 1 (C1D1)]. If the prespecified minimal response rate was not achieved in the first stage for a given cohort, that cohort would be closed to enrollment. […] The final analysis of the primary endpoints for each cohort would take place when all ongoing patients had the opportunity to complete the 6-month disease assessment. Across both phases, patients received subasumstat for up to 1 year or until confirmed disease progression, unacceptable toxicity, if any withdrawal criterion from the study was met, or if discontinuation of subasumstat occurred.
# The occurrence of DLTs was assessed during cycle 1 (DLTs are described in the Supplementary Methods). Treatment-emergent adverse events (TEAE) were graded according to NCI Common Terminology Criteria for Adverse Events version 5.0, except for cytokine release syndrome (CRS), which was graded according to the American Society for Transplantation and Cellular Therapy Consensus Grading for CRS ([20]).
# It was anticipated that approximately 70 DLT-evaluable patients would be enrolled for dose escalation. The safety analysis set included all patients who received at least one dose, even if incomplete, of subasumstat. […] The overall response rate (ORR) was defined as the proportion of patients who achieved complete response and partial response (PR) during the study. The disease control rate (DCR) was defined as the proportion of patients who achieved […] as per RECIST v1.1 for solid tumors or Lugano classification for lymphomas. […] Progression-free survival was summarized descriptively using the Kaplan–Meier method.
structure (smiles),measurement,setting,value
Cc1sc(C(=O)c2cncnc2N[C@@H]2C[C@H](COS(N)(=O)=O)[C@@H](O)C2)cc1[C@@H]1NCCc2ccc(Cl)cc21 [subasumstat],Subasumstat-related TEAE: Nausea,Phase II (n = 25),4 (16.0) n (%)
same,Subasumstat-related TEAE: Pyrexia,Phase II (n = 25),9 (36.0) n (%)
same,Subasumstat-related TEAE: Vomiting,Phase II (n = 25),1 (4.0) n (%)
same,TEAE: Abdominal distension,Phase II (n = 25),1 (4.0) n (%)
same,TEAE: Abdominal pain,Phase II (n = 25),4 (16.0) n (%)
same,TEAE: Anemia,Phase II (n = 25),7 (28.0) n (%)
same,TEAE: Arthralgia,Phase II (n = 25),5 (20.0) n (%)
same,TEAE: Back pain,Phase II (n = 25),2 (8.0) n (%)
same,TEAE: CRS,Phase II (n = 25),3 (12.0) n (%)
same,TEAE: Chills,Phase II (n = 25),8 (32.0) n (%)
same,TEAE: Constipation,Phase II (n = 25),2 (8.0) n (%)
same,TEAE: Decreased appetite,Phase II (n = 25),5 (20.0) n (%)
same,TEAE: Dehydration,Phase II (n = 25),2 (8.0) n (%)
same,TEAE: Diarrhea,Phase II (n = 25),10 (40.0) n (%)
same,TEAE: Dyspnea,Phase II (n = 25),4 (16.0) n (%)
same,TEAE: Fatigue,Phase II (n = 25),9 (36.0) n (%)
same,TEAE: Headache,Phase II (n = 25),7 (28.0) n (%)
same,TEAE: Hypophosphatemia,Phase II (n = 25),0 n (%)
same,TEAE: Insomnia,Phase II (n = 25),2 (8.0) n (%)
same,TEAE: Nausea,Phase II (n = 25),4 (16.0) n (%)
same,TEAE: Peripheral edema,Phase II (n = 25),2 (8.0) n (%)
same,TEAE: Pleural effusion,Phase II (n = 25),3 (12.0) n (%)
same,TEAE: Pyrexia,Phase II (n = 25),11 (44.0) n (%)
same,TEAE: Stomatitis,Phase II (n = 25),3 (12.0) n (%)
same,TEAE: Vomiting,Phase II (n = 25),2 (8.0) n (%)
same,TEAEs,Phase II (n = 25),24 (96.0) n (%)
same,TEAEs leading to discontinuation,Phase II (n = 25),4 (16.0) n (%)
same,TEAEs leading to discontinuation related to subasumstat,Phase II (n = 25),1 (4.0) n (%)
same,TEAEs related to subasumstat,Phase II (n = 25),22 (88.0) n (%)
same,AESI (adverse event of special interest),Total (N = 109),12 (11.0) n (%)
same,AESI related to subasumstat,Total (N = 109),12 (11.0) n (%)
same,AESI: CRS,Total (N = 109),12 (11.0) n (%)
same,Grade ≥3 TEAE: Abdominal pain,Total (N = 109),6 (5.5) n (%)
same,Grade ≥3 TEAE: Acute kidney injury,Total (N = 109),4 (3.7) n (%)
same,Grade ≥3 TEAE: Anemia,Total (N = 109),14 (12.8) n (%)
same,Grade ≥3 TEAE: Aspartate aminotransferase increased,Total (N = 109),2 (1.8) n (%)
same,Grade ≥3 TEAE: Blood bilirubin increased,Total (N = 109),2 (1.8) n (%)
same,Grade ≥3 TEAE: Dyspnea,Total (N = 109),4 (3.7) n (%)
same,Grade ≥3 TEAE: Fatigue,Total (N = 109),5 (4.6) n (%)
same,Grade ≥3 TEAE: Hyperbilirubinemia,Total (N = 109),2 (1.8) n (%)
same,Grade ≥3 TEAE: Hypertension,Total (N = 109),2 (1.8) n (%)
same,Grade ≥3 TEAE: Hypokalemia,Total (N = 109),7 (6.4) n (%)
same,Grade ≥3 TEAE: Hypomagnesemia,Total (N = 109),2 (1.8) n (%)
same,Grade ≥3 TEAE: Hypophosphatemia,Total (N = 109),2 (1.8) n (%)
same,Grade ≥3 TEAE: Lymphocyte count decreased,Total (N = 109),5 (4.6) n (%)
same,Grade ≥3 TEAE: Lymphopenia,Total (N = 109),2 (1.8) n (%)
same,Grade ≥3 TEAE: Muscular weakness,Total (N = 109),2 (1.8) n (%)
same,Grade ≥3 TEAE: Nausea,Total (N = 109),2 (1.8) n (%)
same,Grade ≥3 TEAE: Neutropenia,Total (N = 109),4 (3.7) n (%)
same,Grade ≥3 TEAE: Platelet count increased,Total (N = 109),3 (2.8) n (%)
same,Grade ≥3 TEAE: Pleural effusion,Total (N = 109),2 (1.8) n (%)
same,Grade ≥3 TEAE: Pneumonia,Total (N = 109),2 (1.8) n (%)
same,Grade ≥3 TEAE: Pneumonitis,Total (N = 109),2 (1.8) n (%)
same,Grade ≥3 TEAE: Pyrexia,Total (N = 109),2 (1.8) n (%)
same,Grade ≥3 TEAE: Small intestinal obstruction,Total (N = 109),4 (3.7) n (%)
same,Grade ≥3 TEAE: Thrombocytopenia,Total (N = 109),2 (1.8) n (%)
same,Grade ≥3 TEAE: Vomiting,Total (N = 109),4 (3.7) n (%)
same,Grade ≥3 TEAEs,Total (N = 109),66 (60.6) n (%)
same,Grade ≥3 TEAEs related to subasumstat,Total (N = 109),29 (26.6) n (%)
same,On-study deaths,Total (N = 109),12 (11.0) n (%)
same,Patients with at least one grade ≥3 TEAE,Total (N = 109),66 (60.6) n (%)
same,Serious adverse events,Total (N = 109),48 (44.0) n (%)
same,Serious adverse events related to subasumstat,Total (N = 109),12 (11.0) n (%)
same,TEAE: Abdominal distension,Total (N = 109),12 (11.0) n (%)
same,TEAE: Abdominal pain,Total (N = 109),21 (19.3) n (%)
same,TEAE: Anemia,Total (N = 109),19 (17.4) n (%)
same,TEAE: Arthralgia,Total (N = 109),17 (15.6) n (%)
same,TEAE: Back pain,Total (N = 109),14 (12.8) n (%)
same,TEAE: CRS,Total (N = 109),12 (11.0) n (%)
same,TEAE: Chills,Total (N = 109),28 (25.7) n (%)
same,TEAE: Constipation,Total (N = 109),16 (14.7) n (%)
same,TEAE: Decreased appetite,Total (N = 109),31 (28.4) n (%)
same,TEAE: Dehydration,Total (N = 109),12 (11.0) n (%)
same,TEAE: Diarrhea,Total (N = 109),39 (35.8) n (%)
same,TEAE: Dyspnea,Total (N = 109),26 (23.9) n (%)
same,TEAE: Fatigue,Total (N = 109),51 (46.8) n (%)
same,TEAE: Headache,Total (N = 109),37 (33.9) n (%)
same,TEAE: Hypophosphatemia,Total (N = 109),11 (10.1) n (%)
same,TEAE: Insomnia,Total (N = 109),13 (11.9) n (%)
same,TEAE: Nausea,Total (N = 109),45 (41.3) n (%)
same,TEAE: Peripheral edema,Total (N = 109),17 (15.6) n (%)
same,TEAE: Pleural effusion,Total (N = 109),12 (11.0) n (%)
same,TEAE: Pyrexia,Total (N = 109),39 (35.8) n (%)
same,TEAE: Stomatitis,Total (N = 109),11 (10.1) n (%)
same,TEAE: Vomiting,Total (N = 109),29 (26.6) n (%)
same,TEAEs,Total (N = 109),105 (96.3) n (%)
same,TEAEs leading to discontinuation,Total (N = 109),12 (11.0) n (%)
same,TEAEs leading to discontinuation related to subasumstat,Total (N = 109),4 (3.7) n (%)
same,TEAEs related to subasumstat,Total (N = 109),87 (79.8) n (%)
same,Grade ≥3 subasumstat-related TEAE: Anemia,Total (n = 109),4 (3.7) n (%)
same,Grade ≥3 subasumstat-related TEAE: Aspartate aminotransferase increased,Total (n = 109),2 (1.8) n (%)
same,Grade ≥3 subasumstat-related TEAE: Hypokalemia,Total (n = 109),2 (1.8) n (%)
same,Grade ≥3 subasumstat-related TEAE: Lymphocyte count decreased,Total (n = 109),4 (3.7) n (%)
same,Grade ≥3 subasumstat-related TEAE: Muscular weakness,Total (n = 109),2 (1.8) n (%)
same,Grade ≥3 subasumstat-related TEAE: Neutropenia,Total (n = 109),4 (3.7) n (%)
same,Grade ≥3 subasumstat-related TEAE: Platelet count increased,Total (n = 109),3 (2.8) n (%)
same,Grade ≥3 subasumstat-related TEAE: Pneumonitis,Total (n = 109),2 (1.8) n (%)
same,Grade ≥3 subasumstat-related TEAE: Thrombocytopenia,Total (n = 109),2 (1.8) n (%)
same,Patients with at least one grade ≥3 subasumstat-related TEAE,Total (n = 109),29 (26.6) n (%)
same,Subasumstat-related TEAE: Anemia,Total (n = 109),8 (7.3) n (%)
same,Subasumstat-related TEAE: CRS,Total (n = 109),12 (11.0) n (%)
same,Subasumstat-related TEAE: Chills,Total (n = 109),23 (21.1) n (%)
same,Subasumstat-related TEAE: Decreased appetite,Total (n = 109),13 (11.9) n (%)
same,Subasumstat-related TEAE: Diarrhea,Total (n = 109),21 (19.3) n (%)
same,Subasumstat-related TEAE: Dyspnea,Total (n = 109),6 (5.5) n (%)
same,Subasumstat-related TEAE: Fatigue,Total (n = 109),34 (31.2) n (%)
same,Subasumstat-related TEAE: Headache,Total (n = 109),26 (23.9) n (%)
same,Subasumstat-related TEAE: Hypokalemia,Total (n = 109),7 (6.4) n (%)
same,Subasumstat-related TEAE: IRR,Total (n = 109),6 (5.5) n (%)
same,Subasumstat-related TEAE: Myalgia,Total (n = 109),8 (7.3) n (%)
same,Subasumstat-related TEAE: Nausea,Total (n = 109),33 (30.3) n (%)
same,Subasumstat-related TEAE: Pyrexia,Total (n = 109),32 (29.4) n (%)
same,Subasumstat-related TEAE: Vomiting,Total (n = 109),14 (12.8) n (%)
same,Severity of CRS,"all incidences, most nonserious",grade 1 or 2
same,Discontinuation of subasumstat due to TEAEs,all patients (N = 109),11%
same,Grade ≥3 TEAE abdominal pain,all patients (N = 109),5.5%
same,Grade ≥3 TEAE anemia,all patients (N = 109),12.8% and 13%
same,Grade ≥3 TEAE hypokalemia,all patients (N = 109),6.4%
same,Grade ≥3 TEAEs,all patients (N = 109),60.6%
same,On-study deaths,all patients (N = 109),11.0%
same,On-study deaths related to subasumstat,all patients (N = 109),none
same,Subasumstat-related TEAE fatigue,all patients (N = 109),31.2%
same,Subasumstat-related TEAE nausea,all patients (N = 109),30.3%
same,Subasumstat-related TEAE pyrexia,all patients (N = 109),29.4%
same,Subasumstat-related grade ≥3 TEAEs,all patients (N = 109),26.6%
same,Subasumstat-related grade ≥3 anemia,all patients (N = 109),3.7%
same,Subasumstat-related grade ≥3 decreased lymphocyte blood cell count,all patients (N = 109),3.7%
same,Subasumstat-related grade ≥3 decreased platelet count,all patients (N = 109),2.8%
same,Subasumstat-related grade ≥3 neutropenia,all patients (N = 109),3.7%
same,TEAE diarrhea,all patients (N = 109),36% and 35.8%
same,TEAE fatigue,all patients (N = 109),47% and 46.8%
same,TEAE headache,all patients (N = 109),33.9%
same,TEAE nausea,all patients (N = 109),41% and 41.3%
same,TEAE pyrexia,all patients (N = 109),36% and 35.8%
same,TEAEs related to subasumstat,all patients (N = 109),79.8%
same,CRS,"all patients (N = 109), 12 patients, all related to subasumstat",11%
same,Infusion-related reactions (IRR),"all patients (N = 109), seven patients",6.4% and 6%
same,Severity of IRR,all seven patients with IRR,grade 1 or 2
same,Dose from which CRS was observed,in vivo,≥ 60 mg
same,IRR deemed related to subasumstat,of seven patients with IRR,six
